# Measured values reported in paper PMC6615598, “Novel antibiotics effective against gram-positive and -negative multi-resistant bacteria with limited resistance” (PLoS Biology, 2019).
# Read-outs that look alike come from different tables or passages of the source. Starred links: 1 amine or outer side, 2 acyl side, 3 side chain; linkers in the order of their positions; H or OH if unused. Non-standard residues stand in square brackets, D forms with d. Residues, ends and D or L forms follow the SMILES beside them. azaβ3(1Nal) = O=C(CN(Cc1cccc2ccccc12)N[*:1])[*:2]
# Experiments:
# MRSA = test: Mild sepsis mouse model, survival; assay type: in vivo; conditions: mice, approximately 5 × 10^8 MRSA IV; single IV 1.5 mg.kg^−1 at 3 h or 15 h post infection; 14 d
# Description: Tolerance and toxicity studies were done on male Swiss mice (CD-1 Crl: CD-1 [ICR] IGS; Charles River). These were 7 to 10 weeks old and weighed an average of 37.2 g. All experimental protocols were approved by the Adaptive Therapeutics Animal Care and Use Committee (APAFiS #4508-2016031l15541258 v2). For the sepsis model, we used female Swiss mice (Janvier Labs), 6 to 8 weeks old and weighing approximately 30 g. Experiments were monitored in the ARCHE-BIOSIT animal lab in Rennes, in biological duplicate. We used Groups of 5 mice for the mild and the severe sepsis models with MRSA. Mice were IV inoculated with 150 μl of MRSA suspensions in 0.9% NaCl containing approximately 5 × 10^8 CFUs for the “mild” sepsis and approximately 2 × 10^9 CFUs for the “severe” sepsis, respectively. […] Mice survival was monitored for 4 d (“severe” sepsis) or 14 d (“mild” sepsis), and the statistical significance of difference(s) between the groups was evaluated using the Wilcoxon test. P < 0.05 was considered significant. Two weeks (“mild” sepsis) or 4 d (“severe” sepsis) after inoculation, mice were euthanized with CO2.
# Escherichia coli MCR−1 = conditions: MCR−1
# Method in brief: (§1)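 Broth microdilution in MHB or CAMHB with an inoculum of 5 × 10^5 CFU/well; compounds were tested from 1 to 128 μM. Plates were incubated 18–20 h at 35°C (±2°C) and read spectrophotometrically. MIC and MBC were determined in triplicate.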
# K. pneumoniae 13829 = conditions: 13829
# Method in brief: as §1
# Escherichia coli ML35P = conditions: E. coli ML35P; broth microdilution; 3 independent experiments
# Method in brief: as §1
# Escherichia coli K12 = conditions: K12
# Method in brief: as §1
# [1] = test system: Enterobacter cloacae ATCC13047; conditions: ATCC13047
# Method in brief: as §1
# A. baumanii 11896 = test system: A. baumanii 11896
# Method in brief: as §1
# P. aeruginosa 15643 = test system: P. aeruginosa 15643
# Method in brief: as §1
# Escherichia coli 508 = test system: Escherichia coli 508
# Method in brief: as §1
# K. pneumoniae 13825 = test system: K. pneumoniae 13825
# Method in brief: as §1
# Escherichia coli 444 = conditions: 444
# Method in brief: as §1
# Escherichia coli 066 = conditions: 066
# Method in brief: as §1
# E. faecium Aus0004 = test system: E. faecium Aus0004
# Method in brief: as §1
# P. aeruginosa 15638 = test system: P. aeruginosa 15638
# Method in brief: as §1
# Escherichia coli PV = conditions: PV
# Method in brief: as §1
# Escherichia coli 293 = conditions: 293
# Method in brief: as §1
# Escherichia coli 13090 = test system: Escherichia coli 13090
# Method in brief: as §1
# P. aeruginosa PA14 = conditions: PA14
# Method in brief: as §1
# P. aeruginosa 15637 = conditions: 15637
# Method in brief: as §1
# P. aeruginosa 15644 = test system: P. aeruginosa 15644
# Method in brief: as §1
# A. baumanii 7985 = test system: A. baumanii 7985
# Method in brief: as §1
# Escherichia coli 146 = conditions: 146
# Method in brief: as §1
# Escherichia coli 283 = conditions: 283
# Method in brief: as §1
# P. aeruginosa 15641 = conditions: 15641
# Method in brief: as §1
# Escherichia coli 750 = test system: Escherichia coli 750
# Method in brief: as §1
# Escherichia coli 758 = conditions: 758
# Method in brief: as §1
# [2] = Stability in human serum (half-life); assay type: in vitro ADME; conditions: 25% human serum, pre-incubated 15 min at 37°C, peptide 10^−4 M, RP-HPLC peak areas, mean of biological triplicates
# Method: (10−4 M final concentrations). At selected time intervals, 100 μl of reaction mixture was collected, quenched by 200 μl 95% EtOH, and adjusted at pH 2 to prevent peptide adsorption to serum proteins. […] Supernatants were analyzed by RP-HPLC on an Xbridge C18 column with a linear gradient of water, 0.08% TFA, and acetonitrile with 1% TFA. HPLC peak areas were used to calculate the percentages of intact compound remaining at the various time points. MIC and MBC values were determined in triplicate in many ESKAPE clinical isolates, including a dozen MDR S. aureus, by the broth microdilution method. Peptidomimetics and antibiotics were assayed in a concentration range of 1 to 128 μM. The bacterial inoculum (5 × 10^5 colony-forming units [CFUs]/well) was prepared in MHB or CAMHB (150 μl). A Biotek Synergy 2 spectrophotometer was used to record the results after 18–20 h incubation at 35°C (±2°C). […] After every hour of culture for 4 h, serial dilutions were plated on BHI plates and incubated overnight at 37°C, and then the CFUs were counted and expressed as log CFU/ml. Phosphate-buffered saline (PBS)-exposed S. aureus MRSA was included as a control.
# Supplementary file pbio.3000337.s013.docx: S7 Table Peptide half-lives in human and mouse sera. […] Peptide amounts and half-lives were determined by HPLC. Experiments were conducted on 25% human or mouse sera. Values are shown in minutes. The mean values correspond to biological triplicates. HPLC, high pressure liquid chromatography. (DOCX) Click here for additional data file.
SMILES,Survival in mild sepsis (MRSA),MIC (Escherichia coli MCR−1),MIC (K. pneumoniae 13829) [µM],MIC (Escherichia coli ML35P),MIC (Escherichia coli K12),MIC [1],MIC (A. baumanii 11896),MIC (Escherichia coli 444),MIC (Escherichia coli 066),MIC (Escherichia coli PV),MIC (Escherichia coli 293),MIC (P. aeruginosa PA14),MIC (P. aeruginosa 15637),MIC (A. baumanii 7985),MIC (Escherichia coli 146),MIC (Escherichia coli 283),MIC (P. aeruginosa 15641),MIC (Escherichia coli 758),half-life [2] [h],other results
CC(C)[C@@H]1NC(=O)[C@H](CCCNC(=N)N)NC(=O)[C@H](CCCNC(=N)N)NC(=O)[C@H](Cc2c[nH]c3ccccc23)NC(=O)[C@H](Cc2ccccc2)NC(=O)[C@H](Cc2ccccc2)NC(=O)[C@H](CCCCN)NC1=O [Pep18] (cyclo(FFWRRVK)),no effect,32 (32.8) μM,>128,16 (16.4) μM,16 (16.4) μM,128 (131.2) μM,>128 µM,32 (32.8) μM,32 (32.8) μM,32 (32.8) μM,32 (32.8) μM,8 (8.2) μM,8 (8.2) μM,>128 µM,32 (32.8) μM,32 (32.8) μM,32 (32.8) μM,32 (32.8) μM,16.3 ± 1.67,"MIC (P. aeruginosa 15643; P. aeruginosa 15643, clinical strain, Caen hemoculture, broth microdilution, 3 independent experiments): 16 (16.4) μM; MIC (Escherichia coli 508; E. coli 508, clinical strain, Rennes urinary catheter, broth microdilution, 3 independent experiments): 64 (65.6) μM; MIC (K. pneumoniae 13825; K. pneumoniae 13825, clinical strain, Caen hemoculture, broth microdilution, 3 independent experiments): 16 (16.4) μM; MIC (E. faecium Aus0004; E. faecium Aus0004, broth microdilution, 3 independent experiments): 64 (65.6) μM; MIC (P. aeruginosa 15638; P. aeruginosa 15638, clinical strain, Caen hemoculture, broth microdilution, 3 independent experiments): 64 (65.6) μM; MIC (Escherichia coli 13090; E. coli 13090, clinical strain, Caen hemoculture, broth microdilution, 3 independent experiments): 16 (16.4) μM; MIC (P. aeruginosa 15644; P. aeruginosa 15644, clinical strain, Caen hemoculture, broth microdilution, 3 independent experiments): 64 (65.6) μM; MIC (Escherichia coli 750; E. coli 750, clinical strain, Rennes urinary catheter, broth microdilution, 3 independent experiments): 16 (16.4) μM"
CC(C)[C@@H]1NC(=O)[C@H](CCCNC(=N)N)NC(=O)[C@H](CCCNC(=N)N)NC(=O)CN(Cc2cccc3ccccc23)NC(=O)[C@H](Cc2ccccc2)NC(=O)CN(Cc2cccc3ccccc23)NC(=O)[C@H](CCCCN)NC1=O [Pep19] (cyclo([azaβ3(1Nal)]F[azaβ3(1Nal)]RRVK)),survived better than those without treatment,16 (18) μM,>128,4 (4.5) μM,4 (4.5) μM,16 (18) μM,8 (9) μM,8 (9) μM,8 (9) μM,8 (9) μM,16 (18) μM,8 (9) μM,8 (9) μM,8 (9) μM,8 (9) μM,8 (9) μM,16 (18) μM,8 (9) μM,24.2 ± 4.33,MIC (P. aeruginosa 15643; 15643): 8 (9) μM; MIC (Escherichia coli 508; 508): 8 (9) μM; MIC (K. pneumoniae 13825; 13825): 8 (9) μM; MIC (E. faecium Aus0004; Aus0004): 8 (9) μM; MIC (P. aeruginosa 15638; 15638): 16 (18) μM; MIC (Escherichia coli 13090; 13090): 4 (4.5) μM; MIC (P. aeruginosa 15644; 15644): 16 (18) μM; MIC (Escherichia coli 750; 750): 8 (9) μM
